{
  "source": "patent US20070059778A1",
  "about": "“Modified colony assay” (priority 2005, published 2007)",
  "test_system": "erythroid colonies (hematopoietic progenitors)",
  "assay": "Hematopoietic CFC assay with anti-GpA-FITC staining, erythroid colony formation in cultures containing 5-FU",
  "type": "cell-based, Human",
  "conditions": "erythroid colonies stained with anti-GPA-FITC, day 14, densitometry",
  "method": "Human BM, CB or MPB mononuclear cells were suspended in a methylcellulose-based culture medium containing cytokines (MethoCult™ H4434, StemCell Technologies) (StemCell Technologies Methocult™ Flyer; StemCell Technologies 2003 Catalogue pp. 86-125) at a concentration of between 1×10^4 and 1×10^5 cells per 1.1 mL of medium. The culture medium was then dispensed into 35 mm culture dishes using 3 mL syringes with blunt end needles, with 1.1 mL of medium per dish. All cultures were incubated for a total of 14 days at 37° C., 5% CO2, 100% humidity. Colonies were enumerated and classified by bright-field microscopy into the following categories based on size and morphology: CFU-E, BFU-E, CFU-GM, CFU-GEMM (StemCell Technologies Colony Atlas).\nStandard CFC assays were prepared as described in example 1. […] After 14 days of culture at 37° C. the dishes were inspected using an inverted fluorescence microscope. […] The erythroid colonies were counted using bright field and fluorescence. Both methods gave very similar results: 27 colonies per dish by bright field illumination; 26 colonies by fluorescence.\nA CFC-assay was set up as described in Example 2. […] Colonies were examined and photographed on day 14 and colony size and fluorescence intensity were analysed by densitometry.",
  "data": [
    {"molecule": "O=c1[nH]cc(F)c(=O)[nH]1", "note": "[5-FU, 5-Fluoro-Uracil]", "values": [
      {"measurement": "size of fluorescent colonies, as measured by surface area and perimeter length", "setting": "versus cultures without 5-FU (FIG. 4A)", "result": "decreased"},
      {"measurement": "fluorescence intensity of colonies", "setting": "versus cultures without 5-FU (FIG. 4B)", "result": "decreased"}
    ]}
  ]
}
